One molecule from ChEMBL document CHEMBL5500370, “Discovery of potent and novel dual NAMPT/BRD4 inhibitors for efficient treatment of hepatocellular carcinoma” (Eur J Med Chem, 2024) can be followed below.

For assay [1], the target named is T1, Bromodomain-containing protein 4 (Homo sapiens, UniProt O60885). Kind of assay: Inhibition of BRD4 BD1 (unknown origin) incubated for 120 mins by TR-FRET assay.
Assay [2] concerns Hep 3B2. Kind of assay: Induction of cell cycle arrest at G2/M phase in human Hep3B cells at 5 uM measured after 72 hrs by PI/RNase staining based flow cytometry (reference value: 11.37 %). In kind it is functional. A general note: Flow cytometry measures light scatter and fluorescence of single cells or particles in a stream.
Assay [3] addresses Bromodomain-containing protein 2 (Homo sapiens, UniProt P25440). Kind of assay: Inhibition of BRD2 BD1/2 (unknown origin) incubated for 120 mins by TR-FRET assay.
The test system of assay [4] is HCCLM3. Put plainly: Antitumor activity against human HCCLM3 cells xenografted in BALB/c nude mouse at 80 mg/kg, ip for 27 days relative to control. In kind it is functional. As to conditions: HCCLM3, 648 h, time 27 day, read-out: TGI. On the technique in general: In xenograft studies the graft and the host belong to different species.
Assay [5] deals with Hep 3B2. Put plainly: Induction of cell cycle arrest at S phase in human Hep3B cells at 5 uM measured after 72 hrs by PI/RNase staining based flow cytometry (reference value: 31.90 %). In kind it is functional.
Assay [6] has as its system HCCLM3. Put plainly: Antitumor activity against human HCCLM3 cells xenografted in BALB/c nude mouse at 40 mg/kg, ip for 27 days relative to control. As to conditions: HCCLM3, 648 h, time 27 day, read-out: TGI. In kind it is functional.
For assay [7], the system named is Hep 3B2. Put plainly: Induction of apoptosis in human Hep3B cells assessed as early apoptotic cells at 10 uM measured after 72 hrs by Annexin V-FITC/PI staining based flow cytometry (reference value: 2.13 %). In kind it is functional.
Assay [8] deals with T1, Bromodomain-containing protein 4. Kind of assay: Inhibition of BRD4 in human Hep3B cells assessed as decrease in c-Myc level at 1 to 10 uM measured after 72 hrs by immunoblot analysis. The class given is cell-based. As to conditions: dose 1-10 µM.
The target of assay [9] is Bromodomain testis-specific protein (Homo sapiens, UniProt Q58F21). Kind of assay: Inhibition of BRDT BD1 (unknown origin) incubated for 120 mins by TR-FRET assay.
Assay [10] relates to Hep 3B2. Kind of assay: Induction of cell cycle arrest at G2/M phase in human Hep3B cells at 1 uM measured after 72 hrs by PI/RNase staining based flow cytometry (reference value: 11.37 %). The class given is functional.
Assay [11] deals with Hep 3B2. Put plainly: Induction of apoptosis in human Hep3B cells assessed as necrotic cells at 10 uM measured after 72 hrs by Annexin V-FITC/PI staining based flow cytometry (reference value: 2.74 %). The class given is functional.
The target of assay [12] is Nicotinamide phosphoribosyltransferase (Homo sapiens, UniProt P43490). Kind of assay: Inhibition of recombinant NAMPT (unknown origin) by fluorescence based assay.
Sequence of Nicotinamide phosphoribosyltransferase (P43490 whole entry): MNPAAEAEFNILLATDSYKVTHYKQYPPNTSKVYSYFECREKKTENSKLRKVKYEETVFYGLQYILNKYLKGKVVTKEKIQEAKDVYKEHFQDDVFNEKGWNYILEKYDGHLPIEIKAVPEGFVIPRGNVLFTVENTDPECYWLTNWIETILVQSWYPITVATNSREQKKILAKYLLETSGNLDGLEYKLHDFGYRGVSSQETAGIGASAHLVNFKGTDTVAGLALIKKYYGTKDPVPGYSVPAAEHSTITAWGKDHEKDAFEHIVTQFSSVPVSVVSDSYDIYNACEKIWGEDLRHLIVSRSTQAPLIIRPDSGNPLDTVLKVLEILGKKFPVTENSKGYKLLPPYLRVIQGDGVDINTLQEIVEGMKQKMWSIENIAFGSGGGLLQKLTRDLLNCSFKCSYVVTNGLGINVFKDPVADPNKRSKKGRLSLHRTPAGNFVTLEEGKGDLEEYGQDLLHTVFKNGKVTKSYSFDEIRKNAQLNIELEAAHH

Each structure is given as a SMILES string. Activity calls are given as the source filed them. The calls are words filed in the database; no cut-off is given here.

Sequence of Bromodomain-containing protein 2 (P25440 whole entry): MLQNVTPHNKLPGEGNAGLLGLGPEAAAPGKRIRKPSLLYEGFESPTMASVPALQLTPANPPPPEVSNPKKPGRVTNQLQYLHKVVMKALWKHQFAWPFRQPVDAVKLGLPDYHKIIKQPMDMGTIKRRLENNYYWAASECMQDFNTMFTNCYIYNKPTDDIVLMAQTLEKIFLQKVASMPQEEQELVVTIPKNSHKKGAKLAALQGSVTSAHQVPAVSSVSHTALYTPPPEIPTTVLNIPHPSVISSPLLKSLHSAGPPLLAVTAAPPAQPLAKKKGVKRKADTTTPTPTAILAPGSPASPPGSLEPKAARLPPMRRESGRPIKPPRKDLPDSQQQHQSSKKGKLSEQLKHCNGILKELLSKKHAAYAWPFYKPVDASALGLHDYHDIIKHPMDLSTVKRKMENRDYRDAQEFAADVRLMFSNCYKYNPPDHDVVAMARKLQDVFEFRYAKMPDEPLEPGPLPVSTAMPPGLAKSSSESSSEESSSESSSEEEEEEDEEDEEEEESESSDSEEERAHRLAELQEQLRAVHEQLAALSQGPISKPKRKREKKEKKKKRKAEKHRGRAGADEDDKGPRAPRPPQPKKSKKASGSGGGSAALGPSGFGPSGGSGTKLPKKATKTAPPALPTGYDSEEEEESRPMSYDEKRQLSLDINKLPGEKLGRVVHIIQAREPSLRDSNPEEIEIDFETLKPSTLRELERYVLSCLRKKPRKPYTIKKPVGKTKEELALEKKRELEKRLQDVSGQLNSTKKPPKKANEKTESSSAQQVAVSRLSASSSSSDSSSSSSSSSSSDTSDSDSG

Broadly, the IC50 is the concentration that inhibits the measured activity by half. On to `Cc1sc2c(c1C)C(c1ccc(Cl)cc1)=N[C@@H](CC(=O)NCCCNC(=O)/C=C/c1cccnc1)c1nnc(C)n1-2`, for which the IC50 came to 12 nM in assay [1], 489 nM in [3], 354 nM in [9] and 35 nM in assay [12]. Also, the Activity is given as 8.35% with Hep 3B2 [2]; 20.57% in the assay on Hep 3B2 [5]; 18.89% in the assay on Hep 3B2 [7]; 9.76% in the assay on Hep 3B2 [10]; 2.43% in the assay with Hep 3B2 [11]. Also, the inhibition in vivo at 80 mg/kg with HCCLM3 [4] stood at 58.2%. In the assay on HCCLM3 [6], the inhibition in vivo at 40 mg/kg amounted to 37.2%. The inhibition entry in assay [8] was “Active”.
